The values below come from ChEMBL document CHEMBL2401675, “Design, synthesis, and biological evaluation of novel dipeptide-type SARS-CoV 3CL protease inhibitors: structure-activity relationship study” (Eur J Med Chem, 2013).

The structures appear in SMILES notation.

By Ki is commonly meant a measure of affinity in units of concentration, obtained from inhibition or displacement. Higher therefore signals lower affinity.

One test concerns the target Replicase polyprotein 1a (Severe acute respiratory syndrome-related coronavirus) (UniProt P0C6U8). Nature of the test: Ratio of Kinact to Ki for SARS coronavirus Chymotrypsin-like protease.
Turning to `CCOC(=O)C1OC1C(=O)N(CCC(N)=O)NC(=O)[C@@H](CC(=O)[C@H](CC(C)C)NC(=O)OCc1ccccc1)Cc1ccccc1` (some centres not stated), the Ratio is 1900 M⁻¹ s⁻¹.

The target of the next test is Replicase polyprotein 1a (Severe acute respiratory syndrome-related coronavirus, UniProt P0C6U8). The experiment in a line: Inhibition of SARS coronavirus Chymotrypsin-like protease using H-Thr-Ser-Ala-Val-Leu-Gln-Ser-Gly-Phe-Arg-Lys-NH2 as substrate by fluorescence assay.
`CCCC[C@H](NC(=O)OCc1ccccc1)C(=O)N[C@@H](C[C@@H]1CCNC1=O)C(=O)c1nc2ccccc2s1` returned a Ki of 1.6 µM.

Take `COc1ccccc1-c1cnc(C(=O)[C@H](C[C@@H]2CCNC2=O)NC(=O)[C@H](CC(C)C)NC(=O)OCc2ccccc2)s1`: the inhibition constant Ki is 2.5 µM.

Compound `CC(C)C[C@H](NC(=O)OC(C)(C)C)C(=O)N[C@@H](C[C@@H]1CCNC1=O)C(=O)c1nc2ccccc2s1` had an inhibition constant Ki of 23 µM.

Compound `COc1ccc(NCC(=O)N[C@@H](CC(C)C)C(=O)N[C@@H](C[C@@H]2CCNC2=O)C(=O)c2nc3ccccc3s2)cc1` returned an inhibition constant Ki of 3.2 µM. Compared with the last compound, the Ki is about 7.2-fold lower.

As for `COc1ccc(/C=C/C(=O)N[C@@H](CC(C)C)C(=O)N[C@@H](C[C@@H]2CCNC2=O)C(=O)c2nc3ccccc3s2)cc1OC`, the Ki was 1.3 µM.

Turning to `O=C(N[C@@H](Cc1ccccc1)C(=O)N[C@@H](C[C@@H]1CCNC1=O)C(=O)c1nc2ccccc2s1)OCc1ccccc1`, the inhibitory constant (Ki) stood at 1.2 µM.

Take `CC(C)C[C@H](NC(=O)Cc1ccccc1)C(=O)N[C@@H](C[C@@H]1CCNC1=O)C(=O)c1nc2ccccc2s1`: affinity was put at a Ki of 3.2 µM. Compared with the last compound, the Ki is about 2.7-fold higher.

Turning to `COc1ccc(OCC(=O)N[C@@H](CC(C)C)C(=O)N[C@@H](C[C@@H]2CCNC2=O)C(=O)c2nc3ccccc3s2)cc1`, the inhibition constant (Ki) is 1.56 µM.

`Cc1ccc(-c2cnc(C(=O)[C@H](C[C@@H]3CCNC3=O)NC(=O)[C@H](CC(C)C)NC(=O)OCc3ccccc3)s2)cc1` came in with a Ki of 37 µM.

The compound `CC(C)C[C@H](NC(=O)COc1cccc(N(C)C)c1)C(=O)N[C@@H](C[C@@H]1CCNC1=O)C(=O)c1nc2ccccc2s1` showed an inhibitory constant (Ki) of 0.84 µM.

Turning to `CC(C)CC(=O)N[C@@H](CC(C)C)C(=O)N[C@@H](C[C@@H]1CCNC1=O)C(=O)c1nc2ccccc2s1`, the inhibition constant (Ki) was 5.9 µM.

`CC(C)C[C@H](NC(=O)/C=C/c1ccccc1)C(=O)N[C@@H](C[C@@H]1CCNC1=O)C(=O)c1nc2ccccc2s1` registered a Ki of 0.69 µM.

`COc1ccc(CCC(=O)N[C@@H](CC(C)C)C(=O)N[C@@H](C[C@@H]2CCNC2=O)C(=O)c2nc3ccccc3s2)cc1` had an inhibitory constant (Ki) of 0.61 µM.

With `COc1ccc(/C=C/C(=O)N[C@@H](CC(C)C)C(=O)N[C@@H](C[C@@H]2CCNC2=O)C(=O)c2nc3ccccc3s2)cc1`, affinity was put at a Ki of 0.7 µM. This Ki and that of the compound before are within 1.5-fold of each other.

On to `COc1ccc(-c2cnc(C(=O)[C@H](C[C@@H]3CCNC3=O)NC(=O)[C@H](CC(C)C)NC(=O)OCc3ccccc3)s2)cc1`, for which the Ki came out at 52 µM.

As to `CC(C)C[C@H](NC(=O)COc1ccc(O)cc1)C(=O)N[C@@H](C[C@@H]1CCNC1=O)C(=O)c1nc2ccccc2s1`, the Ki stood at 8.4 µM.

In turn, `CC(C)C[C@H](NC(=O)OCc1ccccc1)C(=O)N[C@@H](C[C@@H]1CCNC1=O)C(=O)c1ncc(-c2ccccc2)s1` came in with a Ki of 0.66 µM.

`CC[C@@H](C)[C@H](NC(=O)OCc1ccccc1)C(=O)N[C@@H](C[C@@H]1CCNC1=O)C(=O)c1nc2ccccc2s1` registered a Ki of 29 µM.

Compound `CC(C)C[C@H](NC(=O)CCc1cccnc1)C(=O)N[C@@H](C[C@@H]1CCNC1=O)C(=O)c1nc2ccccc2s1` showed a Ki of 7.4 µM.

In turn, `CSCC[C@H](NC(=O)OCc1ccccc1)C(=O)N[C@@H](C[C@@H]1CCNC1=O)C(=O)c1nc2ccccc2s1` yielded a Ki of 9.4 µM.

In the case of `CC(C)[C@H](NC(=O)OCc1ccccc1)C(=O)N[C@@H](C[C@@H]1CCNC1=O)C(=O)c1nc2ccccc2s1`, the affinity, expressed as Ki, was 1.71 µM.
